# Test results taken from patent publication US20230313199A1, “TARGET FOR MODULATING BODY MASS” (Massachusetts Institute of Technology, priority 2020, published 2023).
# How the values were obtained:
# mutant HP motif peptide = assay: Heme absorbance-shift assay with mutant HP motif peptide; assay type: binding; conditions: both histidine residues in the HP motif peptide mutated to alanine
# Procedure: Peptide synthesis. Wild-type HP motif peptide (HPSALAQPSGLAHP) and mutant HP motif peptide (APSALAQPSGLAAP) were synthesized using solid-phase synthesis and purified using HPLC by the Biopolymers & Proteomics Core at the Koch Institute for Integrative Cancer Research.
# Heme absorbance-shift assay. Hemin was prepared fresh before each experiment. Approximately 20 mg of hemin (Sigma) was placed in a fresh tube and resuspended with 1 mL of DMSO. The hemin solution was slowly diluted while mixing with 1 mL of 2× buffer C (25 mM HEPES-NaOH pH 7.8, 10 mM NaCl), and aggregated hemin was eliminated by passing the solution through a 0.2 μm filter unit. Hemin concentration was determined by diluting the filtered solution with 1× buffer C 1:100 and using the extinction coefficient of 58,400 cm^−1M^−1 at 385 nm. For each reaction, the 200 μL reaction mix containing 100 μM hemin, 25 mM HEPES-NaOH pH 7.8, 10 mM NaCl, and various concentrations of wild-type or mutant NTD protein, was placed in a transparent 96-well plate. Absorbance intensity was measured using Tecan Infinite M200 Pro microplate reader, between 330 and 550 nm using 5 nm steps. The absorbance intensity for dissolved hemin was subtracted from absorbance intensity from hemin incubated with various concentrations of protein.
# 4B8^ΔN cells = assay: OCR, ECAR, FPT intensity and MMP in 4B8 cells complemented with NTD-truncated MFSD7C; assay type: cell-based, human; conditions: heme 1 hour
# Procedure: FIGS. 4A-4H show NTD of MFSD7C mediates heme effect on mitochondrial respiration. FIGS. 4A-4C show comparison of basal OCR (FIG. 4A), maximal OCR (FIG. 4B) and ECAR (FIG. 4C) of THP-1, 4B8, and 4B8^FL and 4B8^ΔN cells treated with vehicle or heme for 1 hour (n=18 separate experiments). […] Cells were incubated with FPT for 6 hrs, washed and reseeded in poly-lysine coated glass bottom dishes. After cells attached to the glass, medium containing 40 μM heme was added. Cells in the same field were imaged immediately and again 1 hour later. Relative FPT fluorescent intensities, normalized to THP-1, from three experiments are shown. (n=3 independent experiments). […] THP-1, 4B8, 4B8^FL and 4B8^ΔN cells were treated with vehicle or heme for 1 hour and MMP was measured by using JC-10 Mitochondrial Membrane Potential Assay Kit followed by flow cytometry. […] Shown are representative Western blotting data (FIG. 4G) and quantification of band intensities from n=3 independent experiments (FIG. 4H). P-values were calculated using two-way ANOVA (*p<0.05, **p<0.01, ***p<0.005). […]
# Measurements of OCR, ECAR, and MMP. Oxygen consumption rate (OCR) and extracellular acidification rate (ECAR) were measured using XF96e Seahorse Extracellular Flux Analyzer per manufacturer's protocol. […]
# NTD of human MFSD7C = target: T1, NTD of human MFSD7C (Homo sapiens, UniProt Q9UPI3); assay: Gel-filtration assay of NTD and heme; assay type: binding; conditions: Superdex 75; absorbance 380 nm, 415 nm and 230 nm
# T1 construct: Plasmid harboring GST-His-tag-SUMO-NTD (amino acids 1-84); GST-His-tag-SUMO (N, cleaved yes); made in house; host or cells: Escherichia coli Lemo21(DE3)
# T1 sequence (Q9UPI3 1-84): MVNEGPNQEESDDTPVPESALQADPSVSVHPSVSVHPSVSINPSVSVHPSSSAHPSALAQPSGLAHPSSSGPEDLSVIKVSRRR
# Procedure: Gel-filtration assay. Purified NTD (200 μM) was incubated with freshly prepared heme (150 μM) in a 1 mL reaction containing 5% DMSO, 25 mM HEPES-NaOH pH 7.8, and 10 mM NaCl. The solution was run over Superdex 75 (24 mL) gel-filtration column at 0.3 mL/min rate using AKTA-FPLC. Absorbance was monitored at 230, 380, and 415 nm. 2 mL injection volume was subtracted from the final elution volume. Solution containing dissolved hemin in the reaction buffer without the NTD protein aggregated on top of the Superdex 75 column, thus this control was avoided in our experiments.
smiles,measurement,setting,value
C=CC1=C(C)c2cc3[n-]c(cc4[n-]c(cc5nc(cc1n2)C(C)=C5C=C)c(C)c4CCC(=O)O)c(CCC(=O)O)c3C.[Fe+2] [heme],absorbance shift of heme,mutant HP motif peptide,abolished
same,"response to heme (OCR, ECAR, FPT intensity, MMP)",4B8^ΔN cells,little to no response to heme
same,co-elution in gel-filtration chromatography,NTD of human MFSD7C,co-eluted with the NTD
